# Test results taken from patent US9708323B2, “Tricyclic compounds as alpha-7 nicotinic acetylcholine receptor ligands” (BRISTOL-MYERS SQUIBB COMPANY, priority 2014, dated 2017).
# pEC50: −log10 of the molar value.
# Target: T1, α-7 nicotinic ACh receptor ion channel expressed in HEK 293 cells (Rattus norvegicus, UniProt Q05941)
# T1 construct: expressed in transfected cells
# Experiment: Ca2+-sensitive, fluorescence-based assay for α-7 nicotinic acetylcholine receptor channel function in mammalian cells (FLIPR)
# Assay type: cell-based
# Details: Table 1, agonist Ca2+ flux, read-out: FLIPR α7 (EC50)
# Protocol: II) A Ca^2+-Sensitive, Fluorescence-Based Assay α-7 for Nicotinic Acetylcholine Receptor Channel Function in Mammalian Cells (“FLIPR”). Summary:
# Lead compounds are evaluated for agonist activity at α-7, α3β4, α4αβ2, and α1β1δ1ε sub-types of nicotinic ACh receptor ion channels expressed in mammalian HEK 293 cells. Agonist potency and efficacy values are determined from kinetic fluorescence Ca^2+ influx measurements made using a 384 well FLIPR (Fluorescence Image Plate Reader). The utility of fluorescent indicators for measuring changes in intracellular divalent cation concentrations, particularly Ca^2+, for drug discovery endeavors is well documented (Rudiger, R., et al., Nature Reviews, 2003, 4:579-586; Gonzalez J. E., et al., Receptors and Channels, 2002, 8:283-295). In this assay, channel expressing HEK cell lines seeded in 384 well assay plates are loaded with a membrane permeant fluorescent Ca^2+ indicator dye, whose 510 nm green emission signal increases in response to elevation of intracellular Ca^2+ concentration. The basal fluorescence from the cells is monitored in real time, followed by the acute addition of test compounds. If the compound is an agonist at any of the non-selective cation channels, the latter open and allow the movement of extracellular Ca^2+ ions into the cell cytoplasm, where they bind to the Ca^2+ indicator dye, and produce an increase in fluorescence output signal, which is detected by a cooled CCD imaging camera.
# Reagents: The acetomethoxy (AM) ester of the Ca^2+ indicator dye Fluo-4 was obtained from InVitrogen, (Carlsbad, Calif.). Acetylcholine and all buffer constituents were purchased from Sigma Chemical Company, St. Louis, Mo. G418 and Minimal Essential Medium were purchased from InVitrogen Life Technologies, Carlsbad, Calif. Fetal bovine serum was purchased from (InVitrogen, Carlsbad, Calif.).
# HEK-293 cells were grown in Minimal Essential Medium containing 10% (v/v) fetal bovine serum at 37° C. in a 5% CO2 incubator. HEK-293 cells stably expressing the ion channels were grown in the same medium with the addition of 500 μg/ml G418.
# HEK-293 cells expressing the ion channels of interest were plated in 384 well, black-walled, clear-bottomed, poly-D-lysine coated plates at a density of ˜20,000 cells/well in 20 μl of Minimal Essential Medium containing 10% (v/v) fetal bovine serum and incubated for 2 days at 29° C. in a 5% CO2 incubator. Prior to assay, cells were loaded with the Fluo-4 AM ester. Cell loading was accomplished by removing the culture medium and replacing it with 30 μl/well of the AM ester of the dye (5 μM) mixed with Hanks Balanced Salt Solution (#14175-095) containing 20 mM HEPES, 2.5 mM probenecid, 0.5 mM CaCl2, 1 mM MgCl2 and 10 μM atropine. Dye loading was allowed to proceed for 90 minutes at room temperature at which time the dye loading solution was removed and replaced with 40 μl/well of Hanks buffer. Cells loaded with dye were loaded onto a FLIPR384 (Molecular Devices, Sunnyvale, Calif.). Fluo-4 dye was excited using the 488 nm line of an argon laser. Emission was filtered using a 540+/−30 nm bandpass filter. For evaluation of the effects of test compounds using the Ca^2+ flux assay, compounds to be tested were provided in assay ready plates. For nicotinic receptor ion channel expressing cells, the assay was initiated by the addition of 20 μl/well of Hanks buffer containing test compounds. For all assays, data were collected at 1 Hz for 10 seconds (baseline), at which time the compound containing stimulus buffers are added, and further measurements collected at 0.33 Hz for 3 min.
# The statistical robustness of the nicotinic receptor Ca^2+ flux assays is determined from blanks and totals wells. The totals wells define maximal channel activation for each compound test plate (Maximum efficacious dose of acetylcholine), and the blanks wells which contain matched DMSO only, define zero channel activation. […]
# T1 sequence (Q05941 23-502): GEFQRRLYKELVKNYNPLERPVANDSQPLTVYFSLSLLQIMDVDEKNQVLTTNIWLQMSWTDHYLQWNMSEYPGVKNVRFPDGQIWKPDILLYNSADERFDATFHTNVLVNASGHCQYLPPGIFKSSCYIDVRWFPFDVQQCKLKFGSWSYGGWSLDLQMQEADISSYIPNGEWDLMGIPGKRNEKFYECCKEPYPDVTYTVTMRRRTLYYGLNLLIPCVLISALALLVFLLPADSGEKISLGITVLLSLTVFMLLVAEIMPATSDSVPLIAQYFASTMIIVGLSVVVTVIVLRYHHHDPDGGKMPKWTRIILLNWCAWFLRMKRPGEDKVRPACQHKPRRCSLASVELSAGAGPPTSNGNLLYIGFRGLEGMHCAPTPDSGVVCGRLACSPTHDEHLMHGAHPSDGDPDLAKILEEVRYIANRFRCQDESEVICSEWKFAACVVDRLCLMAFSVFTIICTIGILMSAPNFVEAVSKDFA
row,Structure (SMILES),pEC50
1,O=C(c1ccns1)N1CC2CN3CCC2C1C3 (stereo not drawn) [Example 78],< 4.00
2,"O=C(c1cc2cccc(Cl)c2s1)N1CC2CN3CCC2C1C3 (stereo not drawn) [Example 1, (7-chlorobenzo[b]thiophen-2-yl)(hexahydro-3,6-methanopyrrolo[2,3-c]pyridin-1(2H)-yl)methanone]",5.77
3,O=C(c1onc2ccccc12)N1CC2CN3CCC2C1C3 (stereo not drawn) [Example 82],< 4.00
4,O=C(c1cc(Br)no1)N1CC2CN3CCC2C1C3 (stereo not drawn) [Example 56],< 4.00
5,O=C(c1sccc1Cl)N1CC2CN3CCC2C1C3 (stereo not drawn) [Example 26],< 4.00
6,O=C(c1cc(-c2ccc(Cl)cc2)cs1)N1CC2CN3CCC2C1C3 (stereo not drawn) [Example 84],< 4.00
7,O=C(c1cc(Br)c(Br)o1)N1CC2CN3CCC2C1C3 (stereo not drawn) [Example 57],< 4.00
8,Cc1c(C(=O)N2CC3CN4CCC3C2C4)sc2ccc(Cl)cc12 (stereo not drawn) [Example 86],< 4.00
9,O=C(c1cc2c(C(F)(F)F)cccc2s1)N1CC2CN3CCC2C1C3 (stereo not drawn) [Example 72],< 4.00
10,O=C(c1ccc(Br)o1)N1CC2CN3CCC2C1C3 (stereo not drawn) [Example 7],< 4.00
11,O=C(c1c[nH]c2ncc(Br)cc12)N1CC2CN3CCC2C1C3 (stereo not drawn) [Example 80],4.42
12,"O=C(c1ccccc1)N1CC2CN3CCC2C1C3 (stereo not drawn) [Example 3, (hexahydro-3,6-methanopyrrolo[2,3-c]pyridin-1(2H)-yl)(phenyl)methanone]",< 4.00
13,O=C(c1cc(-c2ccccc2)no1)N1CC2CN3CCC2C1C3 (stereo not drawn) [Example 62],< 4.00
14,O=C(c1c[nH]c2ncccc12)N1CC2CN3CCC2C1C3 (stereo not drawn) [Example 55],< 4.00
15,O=C(c1sc2cc(F)ccc2c1Cl)N1CC2CN3CCC2C1C3 (stereo not drawn) [Example 52],< 4.00
16,O=C(c1noc2ccccc12)N1CC2CN3CCC2C1C3 (stereo not drawn) [Example 81],5.10

# Same assay, conditions: Table 2, agonist Ca2+ flux, read-out: FLIPR α7 (EC50)
row,Structure (SMILES),pEC50
1,"O=C(c1ccc(Cl)cc1)N1C[C@H]2C[N@]3CC[C@H]2[C@H]1C3 [Example 98, (4-chlorophenyl) ((3R,3aR,6S,7aS)-hexahydro-3,6-methanopyrrolo[2,3-c]pyridin-1(2H)-yl)methanone]",< 4.00
2,"COc1ccc2c(C(=O)N3C[C@H]4C[N@]5CC[C@H]4[C@H]3C5)n[nH]c2c1 [Example 93, ((3R,3aR,6S,7aS)-hexahydro-3,6-methanopyrrolo[2,3-c]pyridin-1(2H)-yl)(6-methoxy-1H-indazol-3-yl)methanone]",5.66
3,"O=C(c1cc2ccccc2s1)N1C[C@H]2C[N@]3CC[C@H]2[C@H]1C3 [Example 89, benzo[b]thiophen-2-yl((3R,3aR,6S,7aS)-hexahydro-3,6-methanopyrrolo[2,3-c]pyridin-1(2H)-yl)methanone]",4.74
4,"O=C(c1cc2cccc(Cl)c2s1)N1C[C@H]2C[N@]3CC[C@H]2[C@H]1C3 [Example 96, 7-chlorobenzo[b]thiophen-2-yl((3R,3aR,6S,7aS)-hexahydro-3,6-methanopyrrolo[2,3-c]pyridin-1(2H)-yl)methanone]",< 4.00
5,"Cn1cc(C(=O)N2C[C@H]3C[N@]4CC[C@H]3[C@H]2C4)c2ccccc21 [Example 91, ((3R,3aR,6S,7aS)-hexahydro-3,6-methanopyrrolo[2,3-c]pyridin-1(2H)-yl)(1-methyl-1H-indol-3-yl)methanone]",< 4.00

# Same assay, conditions: Table 3, agonist Ca2+ flux, read-out: FLIPR α7 (EC50)
row,Structure (SMILES),pEC50
1,"O=C(c1n[nH]c2ccccc12)N1C[C@@H]2C[N@@]3CC[C@@H]2[C@@H]1C3 [Example 87, ((3S,3aS,6R,7aR)-hexahydro-3,6-methanopyrrolo[2,3-c]pyridin-1(2H)-yl)(1H-indazol-3-yl)methanone]",6.43
2,"O=C(c1ccc(Cl)cc1)N1C[C@@H]2C[N@@]3CC[C@@H]2[C@@H]1C3 [Example 112, (4-chlorophenyl)((3S,3aS,6R,7aR)-hexahydro-3,6-methanopyrrolo[2,3-c]pyridin-1(2H)-yl)methanone]",< 4.00
3,"O=C(c1n[nH]c2cc(Cl)ccc12)N1C[C@@H]2C[N@@]3CC[C@@H]2[C@@H]1C3 [Example 109, ((3S,3aS,6R,7aR)-hexahydro-3,6-methanopyrrolo[2,3-c]pyridin-1(2H)-yl)(6-chloro-1H-indazol-3-yl)methanone]",< 4.00
4,"COc1ccc2[nH]nc(C(=O)N3C[C@@H]4C[N@@]5CC[C@@H]4[C@@H]3C5)c2c1 [Example 110, ((3S,3aS,6R,7aR)-hexahydro-3,6-methanopyrrolo[2,3-c]pyridin-1(2H)-yl)(5-methoxy-1H-indazol-3-yl)methanone]",< 4.00
5,"COc1ccc2c(C(=O)N3C[C@@H]4C[N@@]5CC[C@@H]4[C@@H]3C5)n[nH]c2c1 [Example 104, ((3S,3aS,6R,7aR)-hexahydro-3,6-methanopyrrolo[2,3-c]pyridin-1(2H)-yl)(6-methoxy-1H-indazol-3-yl)methanone]",< 4.00
6,"O=C(c1cc2ccccc2o1)N1C[C@@H]2C[N@@]3CC[C@@H]2[C@@H]1C3 [Example 113, benzofuran-2-yl((3S,3aS,6R,7aR)-hexahydro-3,6-methanopyrrolo[2,3-c]pyridin-1(2H)-yl)methanone]",< 4.00
